{"source": "patent US20240173283A1", "about": "“PROPHYLACTIC AGENT OR THERAPEUTIC AGENT FOR SIDE EFFECTS OF ANTHRACYCLINE ANTICANCER AGENT” (Kyushu University, National University Corporation, priority 2021, published 2024)", "key": {"Primary cardiomyocytes [1]": {"system": "Primary cardiomyocytes", "test": "Cell death evaluation assay (Cell Counting Kit-F) in doxorubicin-treated primary cardiomyocytes", "type": "cell-based, rat", "conditions": "FIG. 2", "method": "(§1) Primary cardiomyocytes were isolated by trypsin and collagenase treatment of the heart harvested from a neonatal rat, and inoculated onto a petri dish. After culture for several days, the culture medium was replaced with a serum-free medium (DMEM), and 2 μM (final concentration) doxorubicin was added from 24 hours later in the serum-free medium. Aminolevulinic acid (5′-ALA, 1 mM) or ferrostatin-1 (Fer-1, 50 μM) was added 1 hour before doxorubicin addition."}, "Primary cardiomyocytes [2]": {"system": "Primary cardiomyocytes", "test": "Malondialdehyde (MDA) measurement by TBARS assay in doxorubicin-treated primary cardiomyocytes", "type": "cell-based, rat", "conditions": "FIG. 1", "method": "as §1, with “medium, and cardiomyocytes were lysed with a RIPA buffer and collected 24 hours after doxorubicin addition.” for “medium.”, “µM)” for “μM)”"}, "[3]": {"system": "malondialdehyde (MDA) in myocardial tissues", "test": "MDA (TBARS assay) in myocardial tissues, doxorubicin cardiomyopathy model", "conditions": "day 14, FIG. 4"}, "[4]": {"system": "mitochondrial heme in myocardial tissues", "test": "Mitochondrial heme (QuantiChrom Heme Assay Kit) in mouse heart tissues", "conditions": "day 14, FIG. 9B"}, "[5]": {"system": "iron in myocardial tissues", "test": "Mitochondrial total iron (ferrozine method) in mouse heart tissues", "conditions": "day 14, FIG. 9A"}, "[6]": {"system": "mitochondrial heme in rat primary cardiomyocytes", "test": "Mitochondrial heme (QuantiChrom Heme Assay Kit) in cardiomyocytes", "type": "cell-based", "conditions": "FIG. 8C"}, "Primary cardiomyocytes [7]": {"system": "Primary cardiomyocytes", "test": "Cell death evaluation assay in primary cardiomyocytes with various anthracycline anticancer agents", "type": "cell-based, rat", "conditions": "5′-ALA 1 mM added 2 hours before DOX, DNR, THP, IDR or EPI (1 or 2 μM); 26 hours after addition; FIG. 5", "protocol": "Primary cardiomyocytes were isolated by trypsin and collagenase treatment of the heart harvested from a neonatal rat, and inoculated onto a petri dish. After culture for several days, the culture medium was replaced with a serum-free medium (DMEM), and doxorubicin (DOX; 1 or 2 μM), daunorubicin (DNR; 1 or 2 μM), pirarubicin (THP; 1 or 2 μM), idarubicin (IDR; 1 or 2 μM), or epirubicin (EPI; 1 or 2 μM) was added (final concentrations for all) from 24 hours later in the serum-free medium. Aminolevulinic acid (5′-ALA, 1 mM) was added 2 hours before doxorubicin addition. […] The obtained results were normalized with those of the control group defined as 1, and presented as data."}, "[8]": {"system": "acrolein in myocardial tissues", "test": "Acrolein western blot of myocardial tissues, doxorubicin cardiomyopathy model", "conditions": "day 14, FIG. 4", "from_the_text": "(§2) The obtained image was quantitatively analyzed in image J (NIH). GAPDH (Santa Cruz Biotechnology Inc., sc-32233) was used as an internal control."}, "[9]": {"system": "Hela cells (human uterine cervical cancer cells)", "test": "Cell death evaluation assay (Cell Counting Kit-F) in Hela cells", "type": "cell-based", "conditions": "24 hours, FIG. 10B", "method": "5′-ALA (1 mM) was added to Hela cells (human uterine cervical cancer cells), and doxorubicin (2 μM) was added thereto 1 hour later. […] The obtained results were normalized with those of the control group defined as 1, and presented as data."}, "[10]": {"system": "EL-4 cells (mouse malignant lymphoma cells)", "test": "Cell survival evaluation by Trypan Blue staining in EL-4 cells", "type": "cell-based", "conditions": "24 hours, FIG. 10A", "method": "5′-ALA (1 mM) was added to EL-4 cells (mouse malignant lymphoma cells), and doxorubicin (1 μM) was added thereto 1 hour later. The cells were collected 24 hours after doxorubicin addition, and dead cells were stained by Trypan Blue staining. The numbers of live cells and dead cells were counted in an automatic cell counter (Countess II FL, Thermo Fisher Scientific Inc.). Cell survival evaluation was conducted from the ratio (%) of the number of live cells to the total number of cells."}, "[11]": {"system": "doxorubicin cardiomyopathy model", "test": "Echocardiography in doxorubicin cardiomyopathy model", "type": "in vivo, mouse", "conditions": "FIG. 3"}, "[12]": {"system": "mitochondrial iron in rat primary cardiomyocytes", "test": "Mito-FerroGreen fluorescent staining of mitochondrial iron in cardiomyocytes", "type": "cell-based", "conditions": "FIGS. 8A and 8B", "protocol": "5′-ALA (1 mM) was added to isolated rat primary cardiomyocytes, and doxorubicin (2 M) was added from 1 hour later. The cells were washed once with PBS 24 hours after doxorubicin addition and cultured for 30 minutes in a medium supplemented with Mito-FerroGreen (5 µM) for fluorescent staining of mitochondrial iron. The cells were washed with PBS again and then observed under a fluorescence microscope (BZ-X800, Keyence Corp.) (FIG. 8A). The signal intensity of the obtained image was quantitatively analyzed in image J (NIH)."}, "ALAS1 [13]": {"system": "ALAS1", "test": "Alas1 western blot in rat primary cardiomyocytes", "type": "cell-based", "conditions": "doxorubicin 2 μM, 24 hours; β-Actin internal control; FIG. 6A", "from_the_text": "The obtained image was quantitatively analyzed in image J (NIH). β-Actin (Santa Cruz Biotechnology Inc., sc-47778) was used as an internal control."}, "ALAS1 [14]": {"system": "ALAS1", "test": "Alas1 western blot in mouse heart tissues", "type": "in vivo", "conditions": "doxorubicin 6 mg/kg/dose, days 0, 2, 4; day 7; GAPDH internal control; FIG. 6B", "from_the_text": "as §2"}, "protoporphyrin IX (PpIX)": {"system": "protoporphyrin IX (PpIX)", "test": "Protoporphyrin IX measurement by mass spectrometer in cardiomyocytes", "type": "cell-based, rat", "conditions": "doxorubicin 2 μM, 24 hours; FIG. 7", "method": "After doxorubicin (2 μM, 24 hours) addition to isolated rat primary cardiomyocytes, the cells were collected with PBS. 50% acetic acid and a dimethylformamide (DMF)/2-propanol (IPA) mixed solution were added to the collected sample, and the mixture was vigorously mixed by vortex. After centrifugation, a supernatant was recovered (supernatant 1), and a DMF/IPA mixed solution was added again to pellets, followed by centrifugation again. The supernatant thus obtained by centrifugation (supernatant 2) and the supernatant 1 were combined and used as protoporphyrin IX extracts. Acetonitrile was added to the extracts, and the mixture was deproteinized and then centrifuged at 20000 g for 20 minutes. Then, a supernatant was applied to a mass spectrometer (column: 1.8 UM, 2.1×100 mm; Waters, MA, USA, measurement equipment: Q Exactive Ultimate 3000; Thermo Fisher Scientific Inc.) to measure protoporphyrin IX (PPIX) in the cardiomyocytes."}, "[15]": {"conditions": "5′-ALA 300 mg/kg/day in drinking water from 3 days before doxorubicin"}, "[16]": {"conditions": "5′-ALA oral 300 mg/kg/day in drinking water from 3 days before initial doxorubicin"}, "[17]": {"conditions": "5′-ALA 1 mM added 1 hour before doxorubicin 2 μM, 24 hours after doxorubicin"}, "[18]": {"conditions": "doxorubicin 6 mg/kg/dose, days 0, 2, 4"}}}
{"smiles": "CCOC(=O)c1ccc(NC2CCCCC2)c(N)c1", "note": "[Fer-1, ferrostatin-1]", "values": [{"measurement": "cell death (ferroptosis) of cardiomyocytes", "setting": "Primary cardiomyocytes [1]; Fer-1 50 μM added 1 hour before 2 μM doxorubicin, 24 hours after doxorubicin", "value": "equivalent to the effect of Fer-1"}, {"measurement": "lipid peroxide level (MDA) in cardiomyocytes", "setting": "Primary cardiomyocytes [2]; Fer-1 50 µM added 1 hour before 2 μM doxorubicin, collected 24 hours after doxorubicin", "value": "equivalent to the effect of Fer-1"}]}
{"smiles": "NCC(=O)CCC(=O)O", "note": "[5′-ALA, 5-aminolevulinic acid]", "values": [{"measurement": "lipid peroxide (MDA) level in myocardial tissues", "setting": "[3]; [15]", "value": "significantly suppressed increase in lipid peroxide (acrolein and MDA) levels"}, {"measurement": "cell death (ferroptosis) of cardiomyocytes", "setting": "Primary cardiomyocytes [1]; 5′-ALA 1 mM added 1 hour before 2 μM doxorubicin, 24 hours after doxorubicin", "value": "suppressed the cell death (ferroptosis) of cardiomyocytes"}, {"measurement": "mitochondrial heme in myocardial tissues", "setting": "[4]; [16]", "value": "the disorder is normalized"}, {"measurement": "total amount of iron in heart mitochondria (myocardial tissues)", "setting": "[5]; [16]", "value": "the iron excess state is normalized"}, {"measurement": "lipid peroxide level (MDA) in cardiomyocytes", "setting": "Primary cardiomyocytes [2]; 5′-ALA 1 mM added 1 hour before 2 μM doxorubicin, collected 24 hours after doxorubicin", "value": "suppressed increase in lipid peroxide level"}, {"measurement": "mitochondrial heme in cardiomyocytes", "setting": "[6]; [17]", "value": "the disorder is normalized"}, {"measurement": "cell death of cardiomyocytes", "setting": "Primary cardiomyocytes [7]", "value": "suppressed the cell death of cardiomyocytes in all the administration groups"}, {"measurement": "lipid peroxide (acrolein) level in myocardial tissues", "setting": "[8]; [15]", "value": "significantly suppressed increase in lipid peroxide (acrolein and MDA) levels"}, {"measurement": "attenuation of cell death-inducing effect of doxorubicin in Hela cells", "setting": "[9]; 5′-ALA 1 mM added 1 hour before doxorubicin 2 μM", "value": "the effects were not attenuated"}, {"measurement": "attenuation of cell death-inducing effect of doxorubicin in EL-4 cells", "setting": "[10]; 5′-ALA 1 mM added 1 hour before doxorubicin 1 μM", "value": "the effects were not attenuated"}, {"measurement": "left ventricular contractility (left ventricular ejection fraction, LVEF)", "setting": "[11]; 5′-ALA 300 mg/kg/day in drinking water from 3 days before doxorubicin (6 mg/kg/dose, days 0, 2, 4, tail vein), echocardiography 7 and 14 days", "value": "significantly improved reduction in left ventricular contractility"}, {"measurement": "mitochondrial iron in cardiomyocytes (Mito-FerroGreen signal intensity)", "setting": "[12]; [17]", "value": "the iron excess state is normalized"}]}
{"smiles": "COc1cccc2c1C(=O)c1c(O)c3c(c(O)c1C2=O)C[C@@](O)(C(=O)CO)C[C@@H]3O[C@H]1C[C@H](N)[C@H](O)[C@H](C)O1", "note": "[doxorubicin]", "values": [{"measurement": "lipid peroxide (MDA) level in myocardial tissues", "setting": "[3]; [18]", "value": "increase in lipid peroxide (acrolein and MDA) levels"}, {"measurement": "level of ALAS1 in cardiomyocytes", "setting": "ALAS1 [13]", "value": "decreased"}, {"measurement": "cell death (ferroptosis) of cardiomyocytes", "setting": "Primary cardiomyocytes [1]; doxorubicin 2 μM, 24 hours", "value": "cell death (ferroptosis) of cardiomyocytes induced by doxorubicin"}, {"measurement": "mitochondrial heme in myocardial tissues", "setting": "[4]; [18]", "value": "heme synthesis disorder is induced"}, {"measurement": "total amount of iron in heart mitochondria (myocardial tissues)", "setting": "[5]; [18]", "value": "an iron excess state is induced"}, {"measurement": "lipid peroxide level (MDA) in cardiomyocytes", "setting": "Primary cardiomyocytes [2]; doxorubicin 2 μM, 24 hours", "value": "increase in lipid peroxide level in cardiomyocytes"}, {"measurement": "mitochondrial heme in cardiomyocytes", "setting": "[6]; doxorubicin 2 μM, 24 hours", "value": "a heme synthesis disorder is induced"}, {"measurement": "lipid peroxide (acrolein) level in myocardial tissues", "setting": "[8]; [18]", "value": "increase in lipid peroxide (acrolein and MDA) levels"}, {"measurement": "level of ALAS1 in myocardial tissues", "setting": "ALAS1 [14]", "value": "decreased"}, {"measurement": "cell death-inducing effect in Hela cells", "setting": "[9]; doxorubicin 2 μM", "value": "a cell death-inducing effects, which are the drug efficacy of doxorubicin, were observed"}, {"measurement": "level of protoporphyrin IX (PpIX) in cardiomyocytes", "setting": "protoporphyrin IX (PpIX)", "value": "decreased"}, {"measurement": "cell death-inducing effect in EL-4 cells (ratio of live cells to total cells)", "setting": "[10]; doxorubicin 1 μM", "value": "a cell death-inducing effects, which are the drug efficacy of doxorubicin, were observed"}, {"measurement": "left ventricular contractility (left ventricular ejection fraction, LVEF)", "setting": "[11]; doxorubicin 6 mg/kg/dose, days 0, 2, 4, tail vein", "value": "reduction in left ventricular contractility"}, {"measurement": "mitochondrial iron in cardiomyocytes (Mito-FerroGreen signal intensity)", "setting": "[12]; doxorubicin 2 μM, 24 hours", "value": "an iron excess state occurs"}]}
